We go through five molecules from US6670382B2, “Hydroxyformamidine derivatives and medicines containing the same” (Taisho Pharmaceutical Co., Ltd., priority 2000, dated 2003).

pIC50: −log10 of the molar value.

The subject of data set [1] is 20-HETE synthase derived from rat kidney microsome. The data set is described as follows: Inhibitory effect of 20-HETE synthase derived from rat kidney microsome. Format: biochemical. As to conditions: SHR rat kidney microsome; for pIC50: concentration at which 20-HETE production was inhibited to 50%. The protocol:
[Inhibitory Effect of 20-HETE Synthase Derived from Rat Kidney Microsome]
Regarding the compounds listed in the Table described above, their inhibitory activities on production of 20-HETE were examined.
This examination was carried out based on the method described in J. Pharmacol. Exp. Ther., Vol. 268, p. 474 (1994).
The subject compound in an amount of 1 μM was added to a 50 mM of 3-morpholinopropanesulfonic acid buffer (MOPS) (pH 7.4), containing 5 mM of magnesium chloride, and 1 mM of ethylenediaminetetraacetic acid (EDTA) disodium salt.
Subsequently, the rat kidney microsome fraction prepared from the kidney of a spontaneously hypertensive rat (male, 6 weeks of age) as an enzyme, [5,6,8,9,11,12,14,15] tritium-arachidonic acid (supplied by Amasham) as a substrate, and NADPH (supplied by Sigma) as a coenzyme were added, and were reacted for 1.5 hours at 37° C.
After the reaction was quenched by adding formic acid (supplied by Wako Pure Chemical Industries Ltd.) to the reaction solution, acetonitrile (final concentration of 50%) was added thereto, and the mixture was allowed to stand for 1.5 hours at room temperature. The amount of 20-HETE production was measured by using a high performance liquid chromatography having a detector for radioactive substances (supplied by Gilson), equipped with an ODS column (Biocyl C18, supplied by Bio-rad).
Setting an amount of 20-HETE production to 100% when no subject compound was added, the inhibition rate (%) was calculated from the amount of 20-HETE production when a subject compound was added.
In addition, setting an amount of 20-HETE production to 100% when no subject compound was added, the concentration of the subject compound at which the production of the 20-HETE was inhibited to 50% when the subject compound is added (IC50 value) was also calculated.

Consider `CN1CCCC(COc2ccc(N/C=N/O)cn2)C1` (centres unmarked) [Comp. 124], for which the melting point (usually the temperature of the solid-liquid transition) is 122 to 124 °C. In addition, in data set [1], the negative-log IC50 (pIC50) (commonly the negative decadic logarithm of the IC50, by convention in mol/L) was 6.85. Also, the “Inhibition (1 µM)” value in data set [1] (inhibition rate of 20-HETE production, subject compound 1 μM, 3H-arachidonic acid, NADPH, 1.5 hours at 37° C., pH 7.4) was found to be 92.6%.
As to `CCN(CC)CCSc1ccc(N/C=N/O)cn1` [Comp. 127], the melting point lay within 124.5 to 125.5 °C. The same molecule gave a pIC50 in data set [1] of 6.48.
The corresponding values for `CN1CCC(CCOc2ccc(N/C=N/O)cn2)CC1` [Comp. 128] are 131 to 133 °C and 6.51.
`CN(C)CCCOc1ccc(N/C=N/O)cn1` [Comp. 132] gave a melting point of 108 to 112 °C. Moreover, the pIC50 in data set [1] is 6.25.
In the same order, the values of `CN(C)CCCCCCOc1ccc(N/C=N/O)cn1` [Comp. 133] are 110 to 111.5 °C and 7.27.
